Assay results published in the Deep4Chem optical property database.

test: solvent given as SMILES; settings: in CO

SMILES	emission maximum [nm]
Cc1ccc2c(c1)nnn2-c1c(C#N)c2c(N)ncnc2n1[C@H]1C[C@H](O)[C@@H](CO)O1	419
CC1(C)CC(/C=C/c2cn(-c3ccccc3)nc2-c2ccccc2)=CC(=C(C#N)C#N)C1	561
c1cc2ccc3cc4cccc5ccc6cc(c1)c2c3c6c54	436
CC1=C2C=CC=[N+]2[B-](F)(F)n2cccc21	503
Clc1ccc(/C=C/c2nc3ccccc3o2)cc1	385
Cc1cc(C(F)(F)F)nc2c1ccc1nc(-c3ccc(F)c(F)c3)cn12	456
O=S(=O)([O-])c1ccc(O)c2ccccc12	361
C(=C\c1cccc2ccccc12)/c1ccc(-c2nnc(-c3ccc(-c4cc5ccccc5s4)cc3)o2)cc1	448

The remaining lines, values ahead:

emission maximum [nm]	SMILES
422	Cc1ccc(/C=N/c2cc(C(C)C)c(O)cc2C)cc1
794	CC1(C)C(/C=C/C2=C(Oc3ccc(CCN=C=S)cc3)C(=C/C=C3/N(CCCS(=O)(=O)[O-])c4ccccc4C3(C)C)/CCC2)=[N+](CCCS(=O)(=O)[O-])c2ccccc21
776	CC1(C)C2=[N+](CCCCCC(=O)NCCCNC(=O)CCCCCN3/C(=C/C=C/C=C/C=C/2)C(C)(C)c2cc(S(=O)(=O)[O-])ccc23)c2ccc(S(=O)(=O)[O-])cc21
410	COc1ccc2cc(-c3ccc(S(C)(=O)=O)cc3)oc(=O)c2c1
389	CN(C)c1c2ccccc2cc2ccccc12

same assay, conditions: in COCCOC

emission maximum [nm]	SMILES
392	CN(C)c1c2ccccc2cc2ccccc12

same assay, conditions: in CS(C)=O

SMILES	emission maximum [nm]
CC1(C)CC(/C=C/c2cn(-c3ccccc3)nc2-c2ccccc2)=CC(=C(C#N)C#N)C1	578
O=S(=O)([O-])c1ccc(O)c2ccccc12	370
C(=C\c1cccc2ccccc12)/c1ccc(-c2nnc(-c3ccc(-c4cc5ccccc5s4)cc3)o2)cc1	455

Now from value to compound:

emission maximum [nm]	SMILES
417	Cc1ccc(/C=N/c2cc(C(C)C)c(O)cc2C)cc1
558	CCN(CC)c1ccc2c(c1)oc(=O)c1c(=O)oc3c(C)c4oc(=O)c5c(=O)oc6cc(N(CC)CC)ccc6c5c4cc3c12
653	CC1(C)C(/C=C/C=C/c2cc3ccc(O)cc3oc2=O)=[N+](CCCS(=O)(=O)[O-])c2ccccc21
395	CN(C)c1c2ccccc2cc2ccccc12

same assay, conditions: in Cc1ccccc1

SMILES	emission maximum [nm]
Nc1nc(/C=C/c2ccc(N(c3ccccc3)c3ccccc3)cc2)cc(/C=C/c2ccc(N(c3ccccc3)c3ccccc3)cc2)n1	467
CCC1(CC)c2cc(/C=C/c3cc(C#N)c(/C=C/c4ccc5c(c4)C(CC)(CC)c4cc(N6c7ccccc7Sc7ccccc76)ccc4-5)cc3C#N)ccc2-c2ccc(N3c4ccccc4Sc4ccccc43)cc21	547
CC1(C)CC(/C=C/c2cn(-c3ccccc3)nc2-c2ccccc2)=CC(=C(C#N)C#N)C1	542
c1cc2ccc3cc4cccc5ccc6cc(c1)c2c3c6c54	436
CN(C)c1ccc(C2=Cc3cc(Cl)nc[n+]3[B-](F)(F)O2)cc1	494
N#CC=C(c1ccc(N2c3ccccc3Oc3ccccc32)cc1)c1ccc(N2c3ccccc3Oc3ccccc32)cc1	574
Cc1cc(C(F)(F)F)nc2c1ccc1nc(-c3ccc(F)c(F)c3)cn12	451
Cc1ccc2c(c1)C1(c3ccccc3-c3ccccc31)c1cc(C)ccc1N2c1ccc2c(c1)Oc1ccccc1P2(=S)c1ccccc1 (stereo unspecified)	443.09
Cc1nc(-c2ccc(N3c4ccccc4C(c4ccccc4)(c4ccccc4)c4ccccc43)cc2)cc(-c2ccc(N3c4ccccc4C(c4ccccc4)(c4ccccc4)c4ccccc43)cc2)n1	453

same assay, conditions: in ClC(Cl)Cl

SMILES	emission maximum [nm]
Nc1nc(/C=C/c2ccc(N(c3ccccc3)c3ccccc3)cc2)cc(/C=C/c2ccc(N(c3ccccc3)c3ccccc3)cc2)n1	526
CC1(C)CC(/C=C/c2cn(-c3ccccc3)nc2-c2ccccc2)=CC(=C(C#N)C#N)C1	550
c1ccc(-n2c(-c3ccc(-c4ccc5c(c4)C4(c6ccccc6-c6ccccc64)c4cc(-c6ccc(-c7nc8ccccc8n7-c7ccccc7)cc6)c6ccccc6c4-5)cc3)nc3ccccc32)cc1	440
CN(C)c1ccc(C2=Cc3cc(Cl)nc[n+]3[B-](F)(F)O2)cc1	512
Cc1cc(C(F)(F)F)nc2c1ccc1nc(-c3ccc(F)c(F)c3)cn12	448
F[B-]1(F)n2c(-c3ccccc3)cc(-c3ccccc3)c2N=C2C(c3ccccc3)=CC(c3ccccc3)=[N+]21	672

Second part, the compound after the results:

emission maximum [nm]	SMILES
647	F[B-]1(F)n2c(cc3oc4ccccc4c32)C(c2ccc(I)cc2)=C2C=c3oc4ccccc4c3=[N+]21
631	CCCN1c2ccccc2Sc2cc(/C=C\c3cc(=O)oc4cc(O)ccc34)ccc21
415	Cc1ccc(/C=N/c2cc(C(C)C)c(O)cc2C)cc1
700	CN1C(=CC2=C([O-])C(=CC3=[N+](C)c4ccccc4C3(C)C)C2=C(C#N)C#N)C(C)(C)c2ccccc21
440	COc1ccc2c(c1)c(C#N)c(C#N)c1cc(OC)ccc12
408	COc1ccc2cc(-c3ccc(S(C)(=O)=O)cc3)oc(=O)c2c1

same assay, conditions: in ClCCl

SMILES	emission maximum [nm]
F[B-]1(F)OC(c2ccccc2)=Cc2cc3[n+](c[n+]21)[B-](F)(F)OC(c1ccccc1)=C3	490
CCC1(CC)c2cc(/C=C/c3cc(C#N)c(/C=C/c4ccc5c(c4)C(CC)(CC)c4cc(N6c7ccccc7Sc7ccccc76)ccc4-5)cc3C#N)ccc2-c2ccc(N3c4ccccc4Sc4ccccc43)cc21	520
CC1(C)CC(/C=C/c2cn(-c3ccccc3)nc2-c2ccccc2)=CC(=C(C#N)C#N)C1	550
c1cc2ccc3cc4cccc5ccc6cc(c1)c2c3c6c54	437
CC1=C2C=CC=[N+]2[B-](F)(F)n2cccc21	507
CN(C)c1ccc(C2=Cc3cc(Cl)nc[n+]3[B-](F)(F)O2)cc1	529
NC1=N/C(=N\c2ccccn2)c2cccc3cccc1c23	506
Cc1cc(C(F)(F)F)nc2c1ccc1nc(-c3ccc(F)c(F)c3)cn12	451
F[B-]1(F)n2c(c3ccccc3c2-c2ccccc2)C=C2c3ccccc3C(c3ccccc3)=[N+]21	658
COc1ccc(-c2nc(C(C)=O)c(C)o2)cc1	351

More lines, now with the values ahead:

emission maximum [nm]	SMILES
622	C=CCNc1ccc2ccc3oc4cc(=[N+]5CCCC5)ccc-4nc3c2c1
402	CCOC(=O)c1c(-c2cc3ccccc3oc2=O)nn(-c2ccc(Cl)cc2)c1C(=O)OCC
415	Cc1ccc(/C=N/c2cc(C(C)C)c(O)cc2C)cc1
563	CCCCN(CCCC)c1ccc(C#Cc2cc(C#Cc3ccc([N+](=O)[O-])cc3)c(C#Cc3ccc([N+](=O)[O-])cc3)cc2C#Cc2ccc(N(CCCC)CCCC)cc2)cc1
568	CCN(CC)c1ccc(/C=N/c2cc3nc4ccccc4nc3cc2/N=C/c2ccc(N(CC)CC)cc2O)c(O)c1
542	CCN(CC)c1ccc2c(c1)oc(=O)c1c(=O)oc3c(C)c4oc(=O)c5c(=O)oc6cc(N(CC)CC)ccc6c5c4cc3c12
549	COC(=O)c1[nH]c(-c2ccc([N+](=O)[O-])cc2)c2nnc3ccc(OC)cc3c12
554	COC(=O)c1cc(=O)n(C)c2cc(-c3ccc(N(C)C)cc3)sc12
451	c1ccc(N(c2ccccc2)c2ccc(-c3ccc4c(c3)C3(c5cc(-c6ccc(N(c7ccccc7)c7ccccc7)cc6)ccc5-4)c4ccccc4N(c4ccccc4)c4ccccc43)cc2)cc1

same assay, conditions: in O

emission maximum [nm]	SMILES
650	C=CCNc1ccc2ccc3oc4cc(=[N+]5CCCC5)ccc-4nc3c2c1
441	Cc1ccc(/C=N/c2cc(C(C)C)c(O)cc2C)cc1
519	Nc1ccc2c(-c3ccc(C(=O)CN4C(=O)CCC4=O)cc3C(=O)[O-])c3ccc(=[NH2+])c(S(=O)(=O)[O-])c-3oc2c1S(=O)(=O)[O-]
768	CC1(C)C2=[N+](CCCCCC(=O)NCCCNC(=O)CCCCCN3/C(=C/C=C/C=C/C=C/2)C(C)(C)c2cc(S(=O)(=O)[O-])ccc23)c2ccc(S(=O)(=O)[O-])cc21
720	CC1(C)C(/C=C/C=C/c2cc3ccc(O)cc3oc2=O)=[N+](CCCS(=O)(=O)[O-])c2ccccc21
390	CN(C)c1c2ccccc2cc2ccccc12
485	O=S(=O)([O-])c1ccc2c([O-])cc(S(=O)(=O)[O-])cc2c1

same assay, conditions: in O=P(c1ccccc1)(c1ccccc1)c1ccc2oc3ccc(P(=O)(c4ccccc4)c4ccccc4)cc3c2c1

SMILES	emission maximum [nm]
Cc1nc(-c2ccc(N3c4ccccc4C(c4ccccc4)(c4ccccc4)c4ccccc43)cc2)cc(-c2ccc(N3c4ccccc4C(c4ccccc4)(c4ccccc4)c4ccccc43)cc2)n1	458

same assay, conditions: in OCC(O)CO

emission maximum [nm]	SMILES
393	CN(C)c1c2ccccc2cc2ccccc12

same assay, conditions: in OCCO

emission maximum [nm]	SMILES
425	Cc1ccc(/C=N/c2cc(C(C)C)c(O)cc2C)cc1
392	CN(C)c1c2ccccc2cc2ccccc12

same assay, conditions: in OCCOCCO

SMILES	emission maximum [nm]
OC1(c2ccc(-c3cccs3)s2)CCC1	465

same assay, conditions: in c1cc(-n2c3ccccc3c3ccccc32)cc(-n2c3ccccc3c3ccccc32)c1

emission maximum [nm]	SMILES
432	c1ccc(N(c2ccccc2)c2ccc(-c3ccc4c(c3)C3(c5cc(-c6ccc(N(c7ccccc7)c7ccccc7)cc6)ccc5-4)c4ccccc4N(c4ccccc4)c4ccccc43)cc2)cc1

same assay, conditions: in c1ccccc1

SMILES	emission maximum [nm]
Cc1cc(C(F)(F)F)nc2c1ccc1nc(-c3ccc(F)c(F)c3)cn12	450

same assay, conditions: in c1ccncc1

SMILES	emission maximum [nm]
OC1(c2ccc(-c3cccs3)s2)CCC1	468
